From patent publication US6525001B1, “Substituted pyrimidine and pyridine herbicides” (Mid-American Commercialization Corporation, priority 1997, dated 2003)

Columns and labels:
Type in all cases: in vivo
[1] = tested on: blackgrass (Alopecurus myosuroides); assay: Test B pre-/postemergence; set-up: key: 0 is no effect; 10 is complete control; settings: for Blackgrass plant response rating: Preemergence
From the text: (§1) Seeds of bedstraw (Galium aparine), blackgrass (Alopecurus myosuroides), broadleaf signalgrass (Brachiaria decumbens), cocklebur (Xanthium strumarium), corn (Zea mays), crabgrass (Digitaria sanguinalis), giant foxtail (Setaria faberii), lambsquarters (Chenopodium album), momingglory (Ipomoea hederacea), pigweed (Amaranthus retroflexus), rape (Brassica napus), soybean (Glycine max), sugar beet (Beta vulgaris), velvetleaf (Abutilon theophrasti), wheat (Triticum aestivum), wild oat (Avena fatua) and purple nutsedge (Cyperus rotundus) tubers were planted and treated preemergence with test chemicals formulated in a non-phytotoxic solvent mixture which included a surfactant.
(§2) At the same time, these crop and weed species were also treated with postemergence applications of test chemicals formulated in the same manner. Plants ranged in height from 2 to 18 cm (1- to 4-leaf stage) for postemergence treatments. Plant species in the flood test consisted of rice (Oryza sativa), smallflower flatsedge (Cyperus difformis), duck salad (Heteranthera limosa) and bamyardgrass (Echinochloa crus-galli) grown to the 2-leaf stage for testing. Treated plants and controls were maintained in a greenhouse for twelve to sixteen days, after which all species were compared to controls and visually evaluated. Plant response ratings, summarized in Table B, are based on a scale of 0 to 10 where 0 is no effect and 10 is complete control. A dash (−) response means no test result.

rape (Brassica napus) = assay: Test B pre-/postemergence; set-up: key: 0 is no effect; 10 is complete control
From the text: as §1, §2

wild oat (Avena fatua) = assay: Test B pre-/postemergence; set-up: key: 0 is no effect; 10 is complete control
From the text: as §1, §2

[2] = tested on: velvetleaf (Abutilon theophrasti); assay: Test B pre-/postemergence; set-up: key: 0 is no effect; 10 is complete control
From the text: as §1, §2

[3] = tested on: sugar beet (Beta vulgaris); assay: Test B pre-/postemergence; set-up: key: 0 is no effect; 10 is complete control
From the text: as §1, §2

[4] = tested on: crabgrass (Digitaria sanguinalis); assay: Test B pre-/postemergence; set-up: key: 0 is no effect; 10 is complete control; settings: for Crabgrass plant response rating: Preemergence
From the text: as §1, §2

[5] = tested on: bedstraw (Galium aparine); assay: Test B pre-/postemergence; set-up: key: 0 is no effect; 10 is complete control; settings: for Bedstraw plant response rating: Preemergence
From the text: as §1, §2

[6] = tested on: momingglory (Ipomoea hederacea); assay: Test B pre-/postemergence; set-up: key: 0 is no effect; 10 is complete control
From the text: as §1, §2

[7] = tested on: pigweed (Amaranthus retroflexus); assay: Test B pre-/postemergence; set-up: key: 0 is no effect; 10 is complete control
From the text: as §1, §2

[8] = tested on: broadleaf signalgrass (Brachiaria decumbens); assay: Test B pre-/postemergence; set-up: key: 0 is no effect; 10 is complete control; settings: for B. signalgrass plant response rating: Preemergence
From the text: as §1, §2

[9] = tested on: giant foxtail (Setaria faberii); assay: Test B pre-/postemergence; set-up: key: 0 is no effect; 10 is complete control
From the text: as §1, §2

soybean (Glycine max) = assay: Test B pre-/postemergence; set-up: key: 0 is no effect; 10 is complete control
From the text: as §1, §2

[10] = tested on: cocklebur (Xanthium strumarium); assay: Test B pre-/postemergence; set-up: key: 0 is no effect; 10 is complete control; settings: for Cocklebur plant response rating: Preemergence
From the text: as §1, §2

corn (Zea mays) = assay: Test B pre-/postemergence; set-up: key: 0 is no effect; 10 is complete control; settings: for Corn plant response rating: Preemergence
From the text: as §1, §2

[11] = tested on: wheat (Triticum aestivum); assay: Test B pre-/postemergence; set-up: key: 0 is no effect; 10 is complete control
From the text: as §1, §2

rice (Oryza sativa) = assay: Test B flood test
Method: as §2

[12] = tested on: smallflower flatsedge (Cyperus difformis); assay: Test B flood test
Method: as §2

[13] = tested on: bamyardgrass (Echinochloa crus-galli); assay: Test B flood test
Method: as §2

[14] = tested on: duck salad (Heteranthera limosa); assay: Test B flood test
Method: as §2

[15] = Rate 250 g/ha, Postemergence (so in the source)
[16] = Rate 62 g/ha, Postemergence (flood test)
[17] = Rate 125 g/ha, Postemergence section (flood test species)
[18] = Rate 250 g/ha, Postemergence (flood test species)
[19] = Rate 125 g/ha, Postemergence, flood test

For `CCc1cnc(-n2cnc(C(F)(F)F)c2)nc1Cc1cccc(OC(F)(F)F)c1` [Compound 49], the “Plant response rating, Blackgrass” value ([1]; Rate 62 g/ha, Postemergence) was 5, the “Blackgrass plant response rating” value ([1]; Rate 62 g/ha) was 4 and the “Plant response rating, Blackgrass” value ([1]; Rate 125 g/ha, Postemergence) was 6. The “Blackgrass plant response rating” value ([1]; Rate 125 g/ha) was 4, the “Plant response rating, Blackgrass” value ([1]; Rate 250 g/ha, Postemergence) was 6 and the “Plant response rating, Blackgrass” value [1, 15] was 6. The “Plant response rating, Rape” value (rape (Brassica napus); Rate 62 g/ha, Postemergence) was 9, the “Rape plant response rating” value (rape (Brassica napus); Rate 62 g/ha, Preemergence) was 7 and the “Rape plant response rating” value (rape (Brassica napus); Rate 125 g/ha, Postemergence) was 9. For the same compound, the “Rape plant response rating” value (rape (Brassica napus); Rate 125 g/ha, Preemergence) was 8, the “Plant response rating, Rape” value (rape (Brassica napus); Rate 250 g/ha, Postemergence) was 9 and the “Plant response rating, Rape” value (rape (Brassica napus); [15]) was 10. The “Wild oats plant response rating” value (wild oat (Avena fatua); Rate 62 g/ha, Postemergence) was 5, the “Wild oats plant response rating” value (wild oat (Avena fatua); Rate 62 g/ha, Preemergence) was 2 and the “Wild oats plant response rating” value (wild oat (Avena fatua); Rate 125 g/ha, Postemergence) was 6. The “Plant response rating, Wild oats” value (wild oat (Avena fatua); Rate 125 g/ha, Preemergence) was 6, the “Plant response rating, Wild oats” value (wild oat (Avena fatua); Rate 250 g/ha, Postemergence) was 7 and the “Plant response rating, Wild oats” value (wild oat (Avena fatua); [15]) was 7. For the same compound, the “Plant response rating, Velvetleaf” value ([2]; Rate 62 g/ha, Postemergence) was 8, the “Velvetleaf plant response rating” value ([2]; Rate 62 g/ha, Preemergence) was 3 and the “Velvetleaf plant response rating” value ([2]; Rate 125 g/ha, Postemergence) was 8. The “Plant response rating, Velvetleaf” value ([2]; Rate 125 g/ha, Preemergence) was 8, the “Plant response rating, Velvetleaf” value ([2]; Rate 250 g/ha, Postemergence) was 9 and the “Plant response rating, Velvetleaf” value [2, 15] was 8. For the same compound, the “Plant response rating, Sugarbeets” value ([3]; Rate 62 g/ha, Postemergence) was 9, the “Sugarbeets plant response rating” value ([3]; Rate 62 g/ha, Preemergence) was 6 and the “Sugarbeets plant response rating” value ([3]; Rate 125 g/ha, Postemergence) was 9. For the same compound, the “Plant response rating, Sugarbeets” value ([3]; Rate 125 g/ha, Preemergence) was 6, the “Plant response rating, Sugarbeets” value ([3]; Rate 250 g/ha, Postemergence) was 9 and the “Plant response rating, Sugarbeets” value [3, 15] was 9. The “Plant response rating, Crabgrass” value ([4]; Rate 62 g/ha, Postemergence) was 5, the “Crabgrass plant response rating” value ([4]; Rate 62 g/ha) was 5 and the “Plant response rating, Crabgrass” value ([4]; Rate 125 g/ha, Postemergence) was 6. For the same compound, the “Crabgrass plant response rating” value ([4]; Rate 125 g/ha) was 7, the “Plant response rating, Crabgrass” value ([4]; Rate 250 g/ha, Postemergence) was 9 and the “Plant response rating, Crabgrass” value [4, 15] was 9. For the same compound, the “Plant response rating, Bedstraw” value ([5]; Rate 62 g/ha, Postemergence) was 9, the “Bedstraw plant response rating” value ([5]; Rate 62 g/ha) was 4 and the “Bedstraw plant response rating” value ([5]; Rate 125 g/ha) was 7. For the same compound, the “Plant response rating, Bedstraw” value [5, 15] was 8, the “Plant response rating, Morningglory” value ([6]; Rate 62 g/ha, Postemergence) was 2 and the “Morningglory plant response rating” value ([6]; Rate 62 g/ha, Preemergence) was 1. The “Morningglory plant response rating” value ([6]; Rate 125 g/ha, Postemergence) was 6, the “Morningglory plant response rating” value ([6]; Rate 125 g/ha, Preemergence) was 3 and the “Plant response rating, Morningglory” value ([6]; Rate 250 g/ha, Postemergence) was 9. The “Plant response rating, Morningglory” value [6, 15] was 4, the “Plant response rating, Redroot pigweed” value ([7]; Rate 62 g/ha, Postemergence) was 9 and the “Redroot pigweed plant response rating” value ([7]; Rate 62 g/ha, Preemergence) was 8. The “Redroot pigweed plant response rating” value ([7]; Rate 125 g/ha, Postemergence) was 9, the “Redroot pigweed plant response rating” value ([7]; Rate 125 g/ha, Preemergence) was 8 and the “Plant response rating, Redroot pigweed” value ([7]; Rate 250 g/ha, Postemergence) was 9. For the same compound, the “Plant response rating, Redroot pigweed” value [7, 15] was 10, the “Plant response rating, B. signalgrass” value ([8]; Rate 62 g/ha, Postemergence) was 2 and the “B. signalgrass plant response rating” value ([8]; Rate 62 g/ha) was 0. For the same compound, the “Plant response rating, B. signalgrass” value ([8]; Rate 125 g/ha, Postemergence) was 3, the “B. signalgrass plant response rating” value ([8]; Rate 125 g/ha) was 1 and the “Plant response rating, B. signalgrass” value ([8]; Rate 250 g/ha, Postemergence) was 4. The “Plant response rating, B. signalgrass” value ([8]; Rate 250 g/ha, Postemergence as printed in head r139 (second section for compounds 26-50)) was 5, the “Plant response rating, Giant foxtail” value ([9]; Rate 62 g/ha, Postemergence) was 2 and the “Giant foxtail plant response rating” value ([9]; Rate 62 g/ha, Preemergence) was 5. For the same compound, the “Giant foxtail plant response rating” value ([9]; Rate 125 g/ha, Postemergence) was 5, the “Giant foxtail plant response rating” value ([9]; Rate 125 g/ha, Preemergence) was 8 and the “Plant response rating, Giant foxtail” value ([9]; Rate 250 g/ha, Postemergence) was 5. For the same compound, the “Plant response rating, Giant foxtail” value [9, 15] was 9, the “Plant response rating, Soybean” value (soybean (Glycine max); Rate 62 g/ha, Postemergence) was 6 and the “Soybean plant response rating” value (soybean (Glycine max); Rate 62 g/ha, Preemergence) was 0. For the same compound, the “Soybean plant response rating” value (soybean (Glycine max); Rate 125 g/ha, Postemergence) was 7, the “Plant response rating, Soybean” value (soybean (Glycine max); Rate 125 g/ha, Preemergence) was 1 and the “Plant response rating, Soybean” value (soybean (Glycine max); Rate 250 g/ha, Postemergence) was 7. The “Plant response rating, Soybean” value (soybean (Glycine max); [15]) was 1, the “Plant response rating, Cocklebur” value ([10]; Rate 62 g/ha, Postemergence) was 7 and the “Cocklebur plant response rating” value ([10]; Rate 62 g/ha) was 0. The “Plant response rating, Cocklebur” value ([10]; Rate 125 g/ha, Postemergence) was 7, the “Cocklebur plant response rating” value ([10]; Rate 125 g/ha) was 0 and the “Plant response rating, Cocklebur” value ([10]; Rate 250 g/ha, Postemergence) was 9. The “Plant response rating, Cocklebur” value [10, 15] was 2, the “Plant response rating, Corn” value (corn (Zea mays); Rate 62 g/ha, Postemergence) was 3 and the “Corn plant response rating” value (corn (Zea mays); Rate 62 g/ha) was 0. The “Plant response rating, Corn” value (corn (Zea mays); Rate 125 g/ha, Postemergence) was 3, the “Corn plant response rating” value (corn (Zea mays); Rate 125 g/ha) was 1 and the “Plant response rating, Corn” value (corn (Zea mays); Rate 250 g/ha, Postemergence) was 4. The “Plant response rating, Corn” value (corn (Zea mays); [15]) was 1, the “Wheat plant response rating” value ([11]; Rate 62 g/ha, Postemergence) was 4 and the “Wheat plant response rating” value ([11]; Rate 62 g/ha, Preemergence) was 1. For the same compound, the “Wheat plant response rating” value ([11]; Rate 125 g/ha, Postemergence) was 5, the “Plant response rating, Wheat” value ([11]; Rate 125 g/ha, Preemergence) was 4 and the “Plant response rating, Wheat” value ([11]; Rate 250 g/ha, Postemergence) was 5. The “Plant response rating, Wheat” value [11, 15] was 4, the “Plant response rating, Rice” value (rice (Oryza sativa); [16]) was 3 and the “Rice plant response rating” value (rice (Oryza sativa); [17]) was 4. For the same compound, the “Plant response rating, Rice” value (rice (Oryza sativa); [18]) was 5, the “Plant response rating, S. Flatsedge” value [12, 16] was 4 and the “S. Flatsedge plant response rating” value [12, 17] was 4. The “Plant response rating, S. Flatsedge” value [12, 18] was 9, the “Plant response rating, Barnyardgrass” value [13, 16] was 5 and the “Plant response rating, Barnyardgrass” value [13, 19] was 5. The “Plant response rating, Barnyardgrass” value [13, 18] was 6, the “Plant response rating, Ducksalad” value [14, 16] was 4 and the “Plant response rating, Ducksalad” value [14, 19] was 4. For the same compound, the “Plant response rating, Ducksalad” value [14, 18] was 4.
